The subject of assay [1] is A549 cells (cancer cells). Briefly: Lactate assay (luminescence) in A549 cells, candidate substance alone or combined with a substance that causes lactic acidosis. Format: cell-based. As to conditions: for activity at 50 µM: Homo sapiens. The procedure:
(§1) To identify the effects of administration of the candidate substances for lactic acidosis treatment as described in Example 1 in combination with the above-mentioned substances that cause lactic acidosis, A549 cells (cancer cells) or L132 cells (normal cells) were respectively seeded in 96- or 24-well plates at a concentration of 1×10^4 or 3×10^5 cells/well, and incubation was performed overnight. Administration of the candidate substance for acidosis treatment in combination with the substance that causes lactic acidosis was performed and incubation was further performed for 24 hours. For the candidate substances for acidosis treatment, each substance was administered at a uniform concentration of 50 μM; and for the substances that cause lactic acidosis, metformin was administered at 1 to 100 μM, isoniazid was administered at 1 to 500 μM, berberine was administered at 10 μM, linezolid was administered at 200 μM, and phenformin was administered at 100 μM. All substances were dissolved in dimethyl sulfoxide (DMSO, Sigma-Aldrich Corporation, St. Louis, Mo., USA), and the substances to be administered in combination were administered simultaneously. Subsequently, 50 μl of the cell culture solution obtained by being diluted with Dulbecco's Phosphate-Buffered Saline (DPBS; Wellgene, Korea), and 50 μl of the lactate assay reaction buffer (Promega, Madison, Wis., USA) were mixed and the mixture was added in a 96-well plate. Reaction was allowed to proceed at room temperature for 1 hour. Then, luminescence was measured with a spectrophotometer (Synergy HTX Multi-Reader; BioTek, Winooski, Vt., USA). At the same time, the number of cells in each sample was measured with a cell viability analysis kit (Cell Counting Kit-8; Dojindo Molecular Technologies, Inc., Kumamoto, Japan), and calculation was performed so that the lactic acid measurement value in each sample could be compared with that in the negative control for the same number of cells.

Assay [2] has as its system L132 cells (normal cells). The assay can be described thus: Lactate assay (luminescence) in L132 cells, candidate substance alone or combined with a substance that causes lactic acidosis. As to conditions: for activity at 50 µM: Homo sapiens. Format: cell-based. The procedure: as §1
The mark [3] stands for this setting: A549, candidate 50 μM + berberine 10 μM, relative to berberine alone (PC).
Setting [4] is: A549, candidate 50 μM + linezolid 200 μM, relative to linezolid alone (PC).
Where [5] appears, read: A549, candidate 50 μM + phenformin 100 μM, relative to phenformin alone (PC).
[6] abbreviates: A549, candidate 50 μM alone, no berberine, 24 h, vs negative control, mean ± SEM, read-out: Luminescence intensity (%), Berberine (10 μM) −.
Where [7] appears, read: A549, candidate 50 μM alone, no linezolid, 24 h, vs negative control, mean ± SEM, read-out: Luminescence intensity (%), Linezolid (200 μM) −.
Where [8] appears, read: A549, candidate 50 μM alone, no phenformin, 24 h, vs negative control, mean ± SEM, read-out: Luminescence intensity (%), Phenformin (100 μM) −.
[9] abbreviates: L132, candidate 50 μM alone, no berberine, 24 h, vs negative control, mean ± SEM, read-out: Luminescence intensity (%), Berberine (10 μM) −.
[10] abbreviates: L132, candidate 50 μM alone, no linezolid, 24 h, vs negative control, mean ± SEM, read-out: Luminescence intensity (%), Linezolid (200 μM) −.
Setting [11] is: L132, candidate 50 μM alone, no phenformin, 24 h, vs negative control, mean ± SEM, read-out: Luminescence intensity (%), Phenformin (100 μM) −.
Setting [12] is: L132, candidate 50 μM + berberine 10 μM, relative to berberine alone (PC).
[13] abbreviates: L132, candidate 50 μM + linezolid 200 μM, relative to linezolid alone (PC).
Setting [14] is: L132, candidate 50 μM + phenformin 100 μM, relative to phenformin alone (PC).
Setting [15] is: L132, candidate 50 μM alone, no linezolid, 24 h, vs negative control, mean ± SEM.

Like-named read-outs stand apart in the source and are kept apart here.

Consider 7 compounds from patent US20220125745A1, “PHARMACEUTICAL COMPOSITION FOR CO-ADMINISTRATION OF ACIDOSIS-INDUCING DRUG” (HAIM BIO CO., LTD., priority 2018, published 2022).

On to `CCCNC(=O)NS(=O)(=O)c1ccc(Cl)cc1` [Chlorpropamide], for which the “Lactic acid value vs. PC (%)” value in assay [1] (setting [3]) is given as 90.69%; in assay [1] (setting [4]) it was 86.81%; in assay [1] (setting [5]), 94.87%; in assay [2] (setting [12]), 102.38%; in assay [2] (setting [13]), 90.11%; in assay [2] (setting [14]) it was 96.68%. In addition, the “Lactic acid-decreasing rate vs. PC (%)” value in assay [1] (setting [3]) is 9.31%; in assay [1] (setting [4]), 13.19%; in assay [1] (setting [5]), 5.13%; in assay [2] (setting [12]) it was −2.38%; in assay [2] (setting [13]), 9.89%; in assay [2] (setting [14]) it was 3.32%. Besides, the activity at 50 µM in assay [1] (setting [6]) turned out to be 97 ± 1.24%; in assay [1] (setting [7]), 97 ± 1.24%; in assay [1] (setting [8]) it was 97 ± 1.24%; in assay [2] (setting [9]) it was 92.4 ± 1.05%; in assay [2] (setting [10]), 92.4 ± 1.05%; in assay [2] (setting [11]), 92.4 ± 1.05%.
As for `N.N.[Cl][Pt][Cl]` [CDDP, Cis-diamminedichloridoplatinum], the “Lactic acid value vs. PC (%)” value in assay [1] (setting [3]) was 74.20%; in assay [1] (setting [4]), 78.37%; in assay [1] (setting [5]), 80.03%; in assay [2] (setting [12]) it was 71.42%; in assay [2] (setting [13]) it was 68.28%; in assay [2] (setting [14]), 83.98%. In addition, the “Lactic acid-decreasing rate vs. PC (%)” value came out at 25.80% in assay [1] (setting [3]); 21.63% in assay [1] (setting [4]); 19.97% in assay [1] (setting [5]); 28.58% in assay [2] (setting [12]); 31.72% in assay [2] (setting [13]); 16.02% in assay [2] (setting [14]). For the same compound, the “Luminescence intensity (%), Berberine (10 μM) −” value was 75.98 ± 2.34 % in assay [1] (A549, candidate 50 μM alone, no berberine, 24 h, vs negative control, mean ± SEM) and 76.97 ± 2.13 % in assay [2] (L132, candidate 50 μM alone, no berberine, 24 h, vs negative control, mean ± SEM). Besides, the “Luminescence intensity (%), Linezolid (200 μM) −” value in assay [1] (A549, candidate 50 μM alone, no linezolid, 24 h, vs negative control, mean ± SEM) turned out to be 75.98 ± 2.34 %; in assay [2] (setting [15]) it was 76.97 ± 2.13 %. In addition, the “Luminescence intensity (%), Phenformin (100 μM) −” value was 75.98 ± 2.34 % in assay [1] (A549, candidate 50 μM alone, no phenformin, 24 h, vs negative control, mean ± SEM) and 76.97 ± 2.13 % in assay [2] (L132, candidate 50 μM alone, no phenformin, 24 h, vs negative control, mean ± SEM).
For the compound `CCCCNC(=O)n1c(NC(=O)OC)nc2ccccc21` [Benomyl], the “Lactic acid value vs. PC (%)” value in assay [1] (setting [3]) was determined as 88.55%; in assay [1] (setting [4]), 84.32%; in assay [1] (setting [5]) it was 92.74%; in assay [2] (setting [12]), 85.38%; in assay [2] (setting [13]), 84.83%; in assay [2] (setting [14]), 93.03%. Besides, the “Lactic acid-decreasing rate vs. PC (%)” value in assay [1] (setting [3]) is given as 11.45%; in assay [1] (setting [4]) it was 15.68%; in assay [1] (setting [5]) it was 7.26%; in assay [2] (setting [12]), 14.62%; in assay [2] (setting [13]), 15.17%; in assay [2] (setting [14]) it was 6.97%. The activity at 50 µM amounted to 87.7 ± 1.21% in assay [1] (setting [6]); 87.7 ± 1.21% in assay [1] (setting [7]); 87.7 ± 1.21% in assay [1] (setting [8]); 85.4 ± 1.55% in assay [2] (setting [9]); 85.4 ± 1.55% in assay [2] (setting [10]); 85.4 ± 1.55% in assay [2] (setting [11]).
For `O=c1c(-c2ccc(O)cc2)coc2cc(O[C@@H]3O[C@H](CO)[C@@H](O)[C@H](O)[C@H]3O)ccc12` [Daidzin], the “Lactic acid value vs. PC (%)” value in assay [1] (setting [3]) came to 92.49%; in assay [1] (setting [4]), 82.45%; in assay [1] (setting [5]), 99.76%; in assay [2] (setting [12]), 95.94%; in assay [2] (setting [13]), 87.80%; in assay [2] (setting [14]), 98.19%. Also, the “Lactic acid-decreasing rate vs. PC (%)” value in assay [1] (setting [3]) worked out at 7.51%; in assay [1] (setting [4]) it was 17.55%; in assay [1] (setting [5]) it was 0.24%; in assay [2] (setting [12]), 4.06%; in assay [2] (setting [13]), 12.20%; in assay [2] (setting [14]), 1.81%. Also, the activity at 50 µM amounted to 97.4 ± 1.1% in assay [1] (A549, 24 h, read-out: Luminescence intensity (%), Berberine (10 μM) −); 97.4 ± 1.1% in assay [1] (A549, 24 h, read-out: Luminescence intensity (%), Linezolid (200 μM) −); 97.4 ± 1.1% in assay [1] (A549, 24 h, read-out: Luminescence intensity (%), Phenformin (100 μM) −); 92 ± 1.14% in assay [2] (L132, 24 h, read-out: Luminescence intensity (%), Berberine (10 μM) −); 92 ± 1.14% in assay [2] (L132, 24 h, read-out: Luminescence intensity (%), Linezolid (200 μM) −); 92 ± 1.14% in assay [2] (L132, 24 h, read-out: Luminescence intensity (%), Phenformin (100 μM) −).
For the compound `C#CCN(C)Cc1ccccc1` [Pargyline], the “Lactic acid value vs. PC (%)” value is 101.89% in assay [1] (setting [3]); 98.24% in assay [1] (setting [4]); 95.59% in assay [1] (setting [5]); 101.56% in assay [2] (setting [12]); 88.70% in assay [2] (setting [13]); 100.88% in assay [2] (setting [14]). For the same compound, the “Lactic acid-decreasing rate vs. PC (%)” value in assay [1] (setting [3]) is listed as −1.89%; in assay [1] (setting [4]) it was 1.76%; in assay [1] (setting [5]), 4.41%; in assay [2] (setting [12]), −1.56%; in assay [2] (setting [13]), 11.30%; in assay [2] (setting [14]), −0.88%. The activity at 50 µM in assay [1] (setting [6]) worked out at 95.68 ± 0.7%; in assay [1] (setting [7]), 95.68 ± 0.7%; in assay [1] (setting [8]), 95.68 ± 0.7%; in assay [2] (setting [9]) it was 96.1 ± 1.32%; in assay [2] (setting [10]), 96.1 ± 1.32%; in assay [2] (setting [11]) it was 96.1 ± 1.32%.
As for `CCN(CC)C(=S)SSC(=S)N(CC)CC` [Disulfiram], the “Lactic acid value vs. PC (%)” value in assay [1] (setting [3]) amounted to 75.67%; in assay [1] (setting [4]), 80.93%; in assay [1] (setting [5]), 90.83%; in assay [2] (setting [12]) it was 69.16%; in assay [2] (setting [13]), 87.16%; in assay [2] (setting [14]), 78.21%. The “Lactic acid-decreasing rate vs. PC (%)” value in assay [1] (setting [3]) was determined as 24.33%; in assay [1] (setting [4]), 19.07%; in assay [1] (setting [5]), 9.17%; in assay [2] (setting [12]), 30.84%; in assay [2] (setting [13]), 12.84%; in assay [2] (setting [14]), 21.79%. For the same compound, the activity at 50 µM came out at 86.1 ± 1.66% in assay [1] (setting [6]); 86.1 ± 1.66% in assay [1] (setting [7]); 86.1 ± 1.66% in assay [1] (setting [8]); 93.4 ± 2.64% in assay [2] (setting [9]); 93.4 ± 2.64% in assay [2] (setting [10]); 93.4 ± 2.64% in assay [2] (setting [11]). Moreover, the “Luminescence intensity (%), Linezolid (200 μM) −” value in assay [2] (setting [15]) worked out at 93.39 ± 2.64 %.
In the case of `CCSC(=O)N1CCCCCC1` [Molinate], the “Lactic acid value vs. PC (%)” value was found to be 105.78% in assay [1] (setting [3]); 105.88% in assay [1] (setting [4]); 91.13% in assay [1] (setting [5]); 105.04% in assay [2] (setting [12]); 125.68% in assay [2] (setting [13]); 99.16% in assay [2] (setting [14]). Further, the “Lactic acid-decreasing rate vs. PC (%)” value is recorded as −5.78% in assay [1] (setting [3]); −5.88% in assay [1] (setting [4]); 8.87% in assay [1] (setting [5]); −5.04% in assay [2] (setting [12]); −25.68% in assay [2] (setting [13]); 0.84% in assay [2] (setting [14]). The activity at 50 µM stood at 110 ± 1.91% in assay [1] (setting [6]); 110 ± 1.91% in assay [1] (setting [7]); 110 ± 1.91% in assay [1] (setting [8]); 155 ± 3.38% in assay [2] (setting [9]); 155 ± 3.3% in assay [2] (setting [10]); 155 ± 3.38% in assay [2] (setting [11]).
